Among the data in ChEMBL document CHEMBL5728361, “(S)-2-(1-cyclopropylethyl)-5-(4-methyl-2-((6-(2-oxopyrrolidin-1-yl)pyridin-2-yl)amino) thiazol-5-yl)-7-(methylsulfonyl)isoindolin-1-one as a phosphatidylinositol 3-kinase inhibitor” (2021) are IC50 values, retold here.

Structures are written as SMILES. pIC50: −log10 of the molar value.

The target in test [1] is T1, Phosphatidylinositol 4,5-bisphosphate 3-kinase catalytic subunit delta isoform (Homo sapiens, UniProt O00329).
T1 sequence (O00329 whole entry): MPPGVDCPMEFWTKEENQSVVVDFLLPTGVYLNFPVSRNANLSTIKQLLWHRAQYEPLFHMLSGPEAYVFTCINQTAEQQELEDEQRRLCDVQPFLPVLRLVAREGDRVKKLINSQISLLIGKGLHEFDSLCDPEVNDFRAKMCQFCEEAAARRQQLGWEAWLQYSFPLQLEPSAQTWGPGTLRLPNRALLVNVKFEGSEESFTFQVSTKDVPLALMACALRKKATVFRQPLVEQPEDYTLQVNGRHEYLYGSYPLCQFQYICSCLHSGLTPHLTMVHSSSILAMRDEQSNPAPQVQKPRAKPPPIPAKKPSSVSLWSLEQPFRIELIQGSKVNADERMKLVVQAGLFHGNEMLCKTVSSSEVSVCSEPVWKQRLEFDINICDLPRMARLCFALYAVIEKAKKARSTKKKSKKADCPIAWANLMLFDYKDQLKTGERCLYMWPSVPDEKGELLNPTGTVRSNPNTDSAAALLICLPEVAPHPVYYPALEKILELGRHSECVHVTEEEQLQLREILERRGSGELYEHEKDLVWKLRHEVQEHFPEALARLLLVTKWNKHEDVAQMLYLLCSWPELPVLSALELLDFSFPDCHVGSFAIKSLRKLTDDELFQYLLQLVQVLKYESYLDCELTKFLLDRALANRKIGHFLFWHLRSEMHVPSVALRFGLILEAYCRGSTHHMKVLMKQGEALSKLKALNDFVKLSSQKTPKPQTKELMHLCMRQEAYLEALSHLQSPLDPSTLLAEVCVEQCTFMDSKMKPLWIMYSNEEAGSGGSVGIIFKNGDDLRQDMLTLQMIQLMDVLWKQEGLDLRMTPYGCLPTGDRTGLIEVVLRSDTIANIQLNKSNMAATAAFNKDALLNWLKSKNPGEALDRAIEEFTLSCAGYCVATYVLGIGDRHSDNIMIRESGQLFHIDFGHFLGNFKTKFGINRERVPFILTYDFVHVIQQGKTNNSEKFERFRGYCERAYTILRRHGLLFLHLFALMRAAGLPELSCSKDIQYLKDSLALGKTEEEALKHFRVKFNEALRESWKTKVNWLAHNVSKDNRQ
Put plainly: (§1) Enzymatic Activity Assay : The activity of recombinant human PI3Kγ ((aa144-1102)-6His) and PI3Kα, β, δ (6-His(p110-p85α)) was determined by measuring the ADP level after phosphorylation of DiC8-PIP2 using a commercially available ADP-Glo™ kit from Promega. The assay was carried out in white low volume 384 well plates in a final volume of 14 μl at R.T. The assay conditions contained the following: 50 mM Tris buffer pH 7.4, 2.1 mM DTT, 3 mM MgCl2, 0.05% CHAPS, 20 μM ATP, 80 μM DiC8-PIP2 and 1.2 nM PI3Kα, β, γ or 0.6 nM PI3Kδ. Potential inhibitors were made up in DMSO and then diluted in the assay to give a final concentration of not exceeding 1% (v/v) DMSO. […] Routinely, inhibitors were pre-incubated with 3 μl of enzyme for 15 min prior to the addition of 2 μl substrate mixture for a further 60 min enzyme reaction. The phosphorylation was stopped with the addition of 3 μl ADP-Glo™ reagent (stop solution) followed by a 40 min incubation. Prior to detection 6 μl of ADP-Glo™ Kinase Detection Reagent was added and the plates were read in a micro plate reader using a Luminescence filter. All additions were followed by a short centrifugation step.

Test [2] addresses Phosphatidylinositol 4,5-bisphosphate 3-kinase catalytic subunit alpha isoform (Homo sapiens, UniProt P42336). The description is as §1.
Test [3] concerns the target Phosphatidylinositol 4,5-bisphosphate 3-kinase catalytic subunit beta isoform (Homo sapiens, UniProt P42338). The description is as §1.
Test [4] in a line: as §1.

Chain of Phosphatidylinositol 4,5-bisphosphate 3-kinase catalytic subunit beta isoform (P42338 whole entry, canonical isoform): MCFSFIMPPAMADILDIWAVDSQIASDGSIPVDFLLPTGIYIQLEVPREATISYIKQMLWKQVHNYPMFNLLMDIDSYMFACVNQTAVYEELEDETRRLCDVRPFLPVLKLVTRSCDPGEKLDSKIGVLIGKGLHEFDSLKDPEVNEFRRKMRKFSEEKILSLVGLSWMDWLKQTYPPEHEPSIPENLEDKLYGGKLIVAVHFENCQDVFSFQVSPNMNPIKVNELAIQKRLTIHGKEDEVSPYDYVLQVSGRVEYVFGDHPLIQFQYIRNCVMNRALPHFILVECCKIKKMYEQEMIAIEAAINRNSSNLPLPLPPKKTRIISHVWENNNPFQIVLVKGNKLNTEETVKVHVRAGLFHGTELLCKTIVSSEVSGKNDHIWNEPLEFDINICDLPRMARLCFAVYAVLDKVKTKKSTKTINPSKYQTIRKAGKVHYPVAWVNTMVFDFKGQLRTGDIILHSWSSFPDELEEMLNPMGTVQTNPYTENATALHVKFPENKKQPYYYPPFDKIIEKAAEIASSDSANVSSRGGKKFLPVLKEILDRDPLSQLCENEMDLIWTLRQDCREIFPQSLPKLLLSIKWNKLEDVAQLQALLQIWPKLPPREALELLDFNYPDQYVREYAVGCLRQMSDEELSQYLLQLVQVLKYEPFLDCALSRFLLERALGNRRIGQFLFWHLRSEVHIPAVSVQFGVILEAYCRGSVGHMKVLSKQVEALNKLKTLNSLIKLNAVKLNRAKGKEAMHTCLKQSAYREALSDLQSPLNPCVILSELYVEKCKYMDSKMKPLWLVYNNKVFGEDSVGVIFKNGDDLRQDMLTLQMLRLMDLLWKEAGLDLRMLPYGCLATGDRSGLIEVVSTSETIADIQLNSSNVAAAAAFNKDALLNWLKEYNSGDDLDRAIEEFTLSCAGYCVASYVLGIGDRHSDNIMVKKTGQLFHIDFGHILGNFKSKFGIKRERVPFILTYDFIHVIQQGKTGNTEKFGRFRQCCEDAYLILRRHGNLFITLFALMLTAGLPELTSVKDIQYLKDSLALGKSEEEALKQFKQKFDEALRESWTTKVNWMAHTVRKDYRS
Chain of Phosphatidylinositol 4,5-bisphosphate 3-kinase catalytic subunit alpha isoform (P42336 whole entry, canonical isoform): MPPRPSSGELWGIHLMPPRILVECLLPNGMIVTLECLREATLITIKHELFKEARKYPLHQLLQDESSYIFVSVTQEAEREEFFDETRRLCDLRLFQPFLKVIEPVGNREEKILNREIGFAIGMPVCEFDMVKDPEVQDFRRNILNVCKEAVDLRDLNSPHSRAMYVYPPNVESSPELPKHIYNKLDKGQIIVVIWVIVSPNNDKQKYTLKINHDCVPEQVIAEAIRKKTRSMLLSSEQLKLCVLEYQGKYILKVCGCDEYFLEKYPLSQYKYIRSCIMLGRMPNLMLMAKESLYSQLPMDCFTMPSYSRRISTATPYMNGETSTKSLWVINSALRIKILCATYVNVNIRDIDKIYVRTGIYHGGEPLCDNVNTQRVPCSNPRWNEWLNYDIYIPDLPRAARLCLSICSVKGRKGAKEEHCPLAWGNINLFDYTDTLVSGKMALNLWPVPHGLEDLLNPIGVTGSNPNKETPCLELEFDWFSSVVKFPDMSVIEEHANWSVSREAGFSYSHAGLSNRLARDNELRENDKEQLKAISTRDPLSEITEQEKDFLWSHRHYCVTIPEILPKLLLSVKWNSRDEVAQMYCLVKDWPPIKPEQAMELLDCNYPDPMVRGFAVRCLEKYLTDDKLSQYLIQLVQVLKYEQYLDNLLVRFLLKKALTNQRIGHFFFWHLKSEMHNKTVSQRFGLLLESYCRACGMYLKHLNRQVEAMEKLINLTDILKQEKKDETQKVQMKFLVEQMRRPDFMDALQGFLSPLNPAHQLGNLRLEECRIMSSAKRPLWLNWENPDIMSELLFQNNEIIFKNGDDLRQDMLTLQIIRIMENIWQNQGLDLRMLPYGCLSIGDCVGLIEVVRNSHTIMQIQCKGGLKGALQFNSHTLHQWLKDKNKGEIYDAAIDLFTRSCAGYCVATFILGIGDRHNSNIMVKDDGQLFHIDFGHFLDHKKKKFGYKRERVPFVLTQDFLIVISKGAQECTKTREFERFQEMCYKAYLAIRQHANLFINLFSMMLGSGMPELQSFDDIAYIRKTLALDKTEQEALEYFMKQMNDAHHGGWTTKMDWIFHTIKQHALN

As for `CC[C@H](C)N1Cc2cc(-c3sc(Nc4cccc(N5CCCOC5=O)n4)nc3C)cc(S(=O)(=O)NC)c2C1=O`, the figures for the negative-log IC50 (pIC50) in test [1], in test [2] and in test [3] were 8.66, 7.10 and 6.34, respectively.

Consider `Cc1nc(Nc2cccc(N3CCCC3=O)c2)sc1-c1cc2c(c(S(C)(=O)=O)c1)C(=O)N([C@@H](C)C1CC1)C2`, for which, in test [4], the negative-log IC50 (pIC50) is 9.05.
